From ChEMBL document CHEMBL1201862, “PubChem BioAssay data set” (2004)
Calls of active or inactive are those of the source.

Key:
[1] = bead-based luminescence quenchers, dual-tagged ARNT – biochemical, AlphaScreen, cherry-pick, artefact control for ARNT-TACC3 interaction inhibitor project, dose response (AID 651705); type: functional;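 further: AlphaScreen bead proximity signal that flags compounds interfering with the detection technology; potency reflects signal decrease which marks the compound as an assay artifact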
[2] = target: Cytochrome P450 2D6 (Homo sapiens, UniProt P10635);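 further: CYP2D6 member of a cytochrome P450 panel assay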
[3] = target: Cytochrome P450 3A4 (Homo sapiens, UniProt P08684);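 further: CYP3A4 tested as one member of a cytochrome P450 panel screen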
[4] = tested on: Vero; test: cells; type: functional; conditions: Chlorocebus sabaeus
[5] = tested on: Vero; test: cells; type: functional, cell-based; conditions: Chlorocebus sabaeus
[6] = target: 26S proteasome non-ATPase regulatory subunit 14 (Homo sapiens, UniProt O00487); test: inhibition of proteasome subunit RPN11 – biochemical, fluorescence polarization, uHTS hits, confirmation (AID 602368); type: functional
[7] = target: 72 kDa type IV collagenase (Homo sapiens, UniProt P08253); test: Dose Response validation of uHTS RPN11 inhibitor hits using a MMP-2 Fluorescence assay.; type: functional
[8] = target: Prothrombin (Bos taurus, UniProt P00735); test: thrombin protease inhibitors – biochemical, fluorescence polarization, uHTS hits, dose response (AID 602369); type: functional
[9] = target: Melanin-concentrating hormone receptor 1 (Homo sapiens, UniProt Q99705); test: Late-stage fluorescence-based counterscreen for antagonists of the G-protein coupled receptor 7 (GPR7): cell-based dose response assay to identify antagonists of the melanin-concentrating hormone receptor 1 (MCHR1) Set 6.; type: functional
[10] = luciferase reporter signal suppression in cells – H4 neuroglioma cells, luminescence, dose response (AID 1990); type: functional, cell-based
[11] = cells; type: functional, cell-based
[12] = Luminescence Cell-Based Dose Response HTS to Identify Inhibitors of 5'UTR Stem-Loop Driven Prion Protein mRNA Translation in H4 Neuroglioblastoma Cells. [Related pubchem assays: 1827 (Project Summary), 1813 (Primary HTS)]; type: functional
[13] = alpha-synuclein stem-loop luciferase translation blockers – H4 neuroglioma cells, luminescence, confirmation (AID 1988); type: functional, cell-based
[14] = cells; type: functional, cell-based; remark: listed apart in the source
[15] = target: T1, Microphthalmia-associated transcription factor (Homo sapiens, UniProt O75030); test: reducers of TRPM1 reporter luminescence, concentration series – cell-based, SK-MEL-5, cherry-picked, set 3, MITF inhibitor project, dose response (AID 493073); type: functional;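 further: SK-MEL-5 melanoma cells with luciferase driven by the MITF target TRPM1 promoter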
T1 sequence (O75030 whole entry): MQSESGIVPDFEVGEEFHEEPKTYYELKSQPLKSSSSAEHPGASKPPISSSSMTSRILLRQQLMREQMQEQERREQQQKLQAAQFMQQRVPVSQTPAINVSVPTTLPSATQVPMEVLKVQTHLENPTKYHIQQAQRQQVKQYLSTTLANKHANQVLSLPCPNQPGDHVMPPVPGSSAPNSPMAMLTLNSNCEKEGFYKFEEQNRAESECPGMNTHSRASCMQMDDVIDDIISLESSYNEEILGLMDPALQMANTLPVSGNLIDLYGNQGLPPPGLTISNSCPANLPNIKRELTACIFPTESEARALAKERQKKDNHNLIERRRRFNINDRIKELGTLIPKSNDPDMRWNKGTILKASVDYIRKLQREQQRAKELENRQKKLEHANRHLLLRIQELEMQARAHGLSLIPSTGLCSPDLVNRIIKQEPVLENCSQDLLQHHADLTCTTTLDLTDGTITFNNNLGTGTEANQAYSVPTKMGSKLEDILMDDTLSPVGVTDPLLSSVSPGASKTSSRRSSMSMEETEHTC

[16] = tested on: INS1; test: INS-1E survival protection against cytokine death – cell-based, luminescence, retest, dose response (AID 449756); type: functional; conditions: Rattus norvegicus;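 further: cell death triggered by IL-1 beta plus TNF-alpha plus IFN-gamma mixture; protective hits raise ATP signal compared with cytokine alone wells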
[17] = tested on: A-375; test: proliferation inhibition in MITF-low A375 cells – cell-based, cherry-pick samples, set 2, counter-screen for MITF modulator project, dose response (AID 540335); type: functional; conditions: Homo sapiens
[18] = tested on: Escherichia coli; test: microbe, parasite or virus in culture
[19] = target: Large T antigen (Simian virus 40, UniProt P03070); type: functional, Betapolyomavirus macacae;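 further: Confirmatory-stage PubChem screen for compounds that inhibit SV40 T antigen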
[20] = Luminescence Cell-Based Dose Retest to Confirm Inhibitors of Cancer Stem Cells. [Related pubchem assays (depositor defined):AID2717, AID2721]; type: functional; conditions: Homo sapiens
[21] = target: T2, Rac GTPase-activating protein 1 (Homo sapiens, UniProt Q9H0H5); test: blockers of MgcRacGAP-driven Rac1 GTP hydrolysis – biochemical, ADP Hunter fluorescence, primary and confirmatory, confirmation (AID 624330); type: functional
T2 sequence (Q9H0H5 whole entry): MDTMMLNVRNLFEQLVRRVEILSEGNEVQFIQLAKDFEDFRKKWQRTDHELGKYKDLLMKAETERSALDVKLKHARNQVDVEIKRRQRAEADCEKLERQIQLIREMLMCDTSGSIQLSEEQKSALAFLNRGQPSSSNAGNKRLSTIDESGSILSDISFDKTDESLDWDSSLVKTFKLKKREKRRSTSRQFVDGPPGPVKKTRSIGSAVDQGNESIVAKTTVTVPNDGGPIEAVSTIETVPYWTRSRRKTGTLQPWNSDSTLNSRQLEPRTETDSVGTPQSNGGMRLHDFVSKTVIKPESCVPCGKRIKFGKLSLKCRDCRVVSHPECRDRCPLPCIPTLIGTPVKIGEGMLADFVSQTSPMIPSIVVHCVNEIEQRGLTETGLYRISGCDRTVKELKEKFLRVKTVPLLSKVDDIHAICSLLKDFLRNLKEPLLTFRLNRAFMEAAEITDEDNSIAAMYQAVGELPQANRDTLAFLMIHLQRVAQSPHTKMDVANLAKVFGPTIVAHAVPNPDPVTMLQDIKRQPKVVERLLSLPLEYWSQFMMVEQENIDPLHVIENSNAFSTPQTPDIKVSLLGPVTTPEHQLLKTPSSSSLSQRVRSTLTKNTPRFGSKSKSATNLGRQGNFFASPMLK

Sequence of 26S proteasome non-ATPase regulatory subunit 14 (O00487 whole entry): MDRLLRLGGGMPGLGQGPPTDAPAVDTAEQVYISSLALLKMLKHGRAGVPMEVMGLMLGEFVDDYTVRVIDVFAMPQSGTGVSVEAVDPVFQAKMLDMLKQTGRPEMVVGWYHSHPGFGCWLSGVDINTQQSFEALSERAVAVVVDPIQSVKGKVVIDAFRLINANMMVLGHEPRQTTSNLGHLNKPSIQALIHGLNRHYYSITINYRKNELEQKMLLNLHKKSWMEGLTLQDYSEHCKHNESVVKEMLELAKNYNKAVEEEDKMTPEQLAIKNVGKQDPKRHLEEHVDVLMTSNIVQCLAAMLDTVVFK
Sequence of Cytochrome P450 3A4 (P08684 whole entry): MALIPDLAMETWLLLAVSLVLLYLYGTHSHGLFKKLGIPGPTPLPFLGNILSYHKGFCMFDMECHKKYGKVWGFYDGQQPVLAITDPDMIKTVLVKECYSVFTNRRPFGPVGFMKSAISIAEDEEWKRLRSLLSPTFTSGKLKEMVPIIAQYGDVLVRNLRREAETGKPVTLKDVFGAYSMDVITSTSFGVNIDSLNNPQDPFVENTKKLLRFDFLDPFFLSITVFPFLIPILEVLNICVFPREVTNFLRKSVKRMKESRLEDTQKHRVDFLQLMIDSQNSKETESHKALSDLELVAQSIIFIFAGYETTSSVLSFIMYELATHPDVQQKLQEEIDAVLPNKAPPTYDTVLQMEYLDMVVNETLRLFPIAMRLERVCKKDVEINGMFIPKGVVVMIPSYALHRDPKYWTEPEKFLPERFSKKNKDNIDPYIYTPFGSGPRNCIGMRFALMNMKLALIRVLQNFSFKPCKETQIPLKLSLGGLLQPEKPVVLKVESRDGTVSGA
Sequence of Large T antigen (P03070 whole entry): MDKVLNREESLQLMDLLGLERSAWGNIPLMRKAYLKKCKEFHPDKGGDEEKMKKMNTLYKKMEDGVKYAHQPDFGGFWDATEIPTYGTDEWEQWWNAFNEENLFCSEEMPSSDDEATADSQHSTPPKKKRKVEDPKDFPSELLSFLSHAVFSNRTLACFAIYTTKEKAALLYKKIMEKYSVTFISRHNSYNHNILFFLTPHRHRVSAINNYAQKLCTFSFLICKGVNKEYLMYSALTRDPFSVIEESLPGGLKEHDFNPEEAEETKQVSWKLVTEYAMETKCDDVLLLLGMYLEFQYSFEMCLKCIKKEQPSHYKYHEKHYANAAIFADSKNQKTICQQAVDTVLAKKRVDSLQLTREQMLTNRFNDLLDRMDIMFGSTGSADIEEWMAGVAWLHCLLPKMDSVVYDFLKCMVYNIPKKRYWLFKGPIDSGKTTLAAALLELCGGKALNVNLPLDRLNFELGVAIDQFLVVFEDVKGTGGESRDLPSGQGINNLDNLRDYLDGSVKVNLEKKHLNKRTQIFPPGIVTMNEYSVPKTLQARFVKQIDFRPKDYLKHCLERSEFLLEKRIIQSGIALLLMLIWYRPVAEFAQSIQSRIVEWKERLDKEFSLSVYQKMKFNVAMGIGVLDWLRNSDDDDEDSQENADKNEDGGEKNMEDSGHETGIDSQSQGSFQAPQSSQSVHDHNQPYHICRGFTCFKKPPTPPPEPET
Sequence of Cytochrome P450 2D6 (P10635 whole entry): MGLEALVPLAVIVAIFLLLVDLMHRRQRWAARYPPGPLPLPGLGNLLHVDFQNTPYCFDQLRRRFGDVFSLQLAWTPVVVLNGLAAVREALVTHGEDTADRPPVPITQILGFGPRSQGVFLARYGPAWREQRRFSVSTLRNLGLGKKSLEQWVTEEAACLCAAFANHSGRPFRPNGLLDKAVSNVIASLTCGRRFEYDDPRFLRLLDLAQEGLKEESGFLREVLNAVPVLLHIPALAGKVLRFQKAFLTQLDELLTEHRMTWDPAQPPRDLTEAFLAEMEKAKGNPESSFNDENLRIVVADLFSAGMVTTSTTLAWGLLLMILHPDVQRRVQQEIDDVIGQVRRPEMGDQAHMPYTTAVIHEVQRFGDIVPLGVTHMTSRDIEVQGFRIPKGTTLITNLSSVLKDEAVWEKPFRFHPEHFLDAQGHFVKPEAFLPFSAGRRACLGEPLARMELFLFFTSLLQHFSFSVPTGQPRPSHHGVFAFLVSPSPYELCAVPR
Sequence of 72 kDa type IV collagenase (P08253 whole entry): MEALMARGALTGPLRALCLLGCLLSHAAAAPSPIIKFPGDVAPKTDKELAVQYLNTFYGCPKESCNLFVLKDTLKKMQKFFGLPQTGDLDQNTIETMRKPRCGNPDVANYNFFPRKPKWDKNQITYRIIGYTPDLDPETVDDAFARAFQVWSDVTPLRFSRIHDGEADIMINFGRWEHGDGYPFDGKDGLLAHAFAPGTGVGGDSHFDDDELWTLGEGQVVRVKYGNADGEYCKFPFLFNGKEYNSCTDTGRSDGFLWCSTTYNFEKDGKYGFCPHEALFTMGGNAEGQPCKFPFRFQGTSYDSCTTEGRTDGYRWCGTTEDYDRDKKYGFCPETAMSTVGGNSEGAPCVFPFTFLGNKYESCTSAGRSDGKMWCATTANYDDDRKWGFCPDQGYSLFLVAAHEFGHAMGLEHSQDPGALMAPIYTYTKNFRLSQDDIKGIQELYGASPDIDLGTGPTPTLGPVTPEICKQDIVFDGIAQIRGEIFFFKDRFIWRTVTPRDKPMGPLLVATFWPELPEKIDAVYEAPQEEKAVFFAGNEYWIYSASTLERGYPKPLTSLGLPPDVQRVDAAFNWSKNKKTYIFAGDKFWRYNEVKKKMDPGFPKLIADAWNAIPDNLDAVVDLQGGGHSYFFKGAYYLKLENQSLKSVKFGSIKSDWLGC
Sequence of Melanin-concentrating hormone receptor 1 (Q99705 whole entry): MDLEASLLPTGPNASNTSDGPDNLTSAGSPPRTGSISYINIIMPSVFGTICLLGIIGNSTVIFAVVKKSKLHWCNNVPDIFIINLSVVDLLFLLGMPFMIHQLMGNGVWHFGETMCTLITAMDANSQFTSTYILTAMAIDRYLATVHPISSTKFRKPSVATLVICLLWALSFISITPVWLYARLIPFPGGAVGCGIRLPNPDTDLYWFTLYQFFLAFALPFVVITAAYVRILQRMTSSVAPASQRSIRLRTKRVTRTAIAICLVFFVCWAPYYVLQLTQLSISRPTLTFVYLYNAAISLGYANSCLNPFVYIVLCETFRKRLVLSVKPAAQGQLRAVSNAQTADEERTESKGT

In the case of `COc1ccc(C2c3ccc(O)cc3Oc3ncn4nc(-c5ccccn5)nc4c32)cc1OC` (stereo not drawn), the AC50 [1] was 122 µM (active).

In the case of `C=CCNS(=O)(=O)c1cccc2cc(C(=O)O)c(O)cc12`, the AC50 [2] was 22.4 µM (inconclusive) and the AC50 [3] was “inconclusive”.

In the case of `C=CCN1C(=O)/C(=C/c2ccc(Br)s2)C(=O)NC1=S`, the CC50 [4] was 24.2 µM (active).

With `Cc1ccc(S(=O)(=O)n2cccc2/C=C/[N+](=O)[O-])cc1` the IC50 [5] was > 25 µM (active) and the CC50 [4] was 9.49 µM (active).

For `O=C(N/N=C/c1ccccc1)c1ccc(CN2C(=O)c3cccc4cccc2c34)cc1`, the IC50 [6] was 10.7 µM (active), the IC50 [7] was > 100 µM (inactive) and the IC50 [8] was 69.8 µM (active).

For `COC(=O)c1nn(-c2ccc(C(C)C)cc2)c(=O)c(Oc2ccc(OC)cc2)c1Cl`, the IC50 [9] was 3.57 µM (active).

In the case of `Cc1cc(C)n(CCC(=O)N/N=C/c2c(O)ccc3ccccc23)n1`, the EC50 [10] was 11 µM (active), the EC50 [11] was 9.7 µM (active) and the EC50 [12] was 11 µM (active). The EC50 [13] was 8.69 µM (active), the EC50 [14] was > 350 µM (not active) and the AC50 [15] was 45.1 µM (active). The AC50 [16] was 3.53 µM (active), the AC50 [17] was 52.3 µM (active) and the AC50 [18] was 40.1 µM (active).

In the case of `C=CCn1c(CNc2ccccc2)nnc1SCC(=O)N/N=C/c1ccc(O)cc1O`, the IC50 [19] was > 100 µM (active), the AC50 [20] was 5.46 µM (active) and the IC50 [21] was 68.8 µM (active). The AC50 [1] was 102 µM (active).
